In US8937091B2 (Japan Science and Technology Agency, priority 2009, dated 2015):

What was measured:
[1] = system: SOCE (store operated calcium entry) in CHO cells; assay: Assay of SOCE (store operated calcium entry)-inhibiting action; type: cell-based, Chinese hamster; conditions: CHO cells, thapsigargin; for inhibition at 10 µM / inhibition at 30 µM / inhibition at 100 µM: Cricetulus griseus, CHO, read-out: SOCE level (percentage of inhibition)
Method in brief: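 CHO cells in calcium-free BSS received compound, then 1 μM thapsigargin 2 min later to deplete stores; after 9 min, 2 mM calcium chloride (final) added. Percent inhibition of the rise in intracellular calcium determined at various compound concentrations.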

[2] = system: IICR (IP3 induced calcium release) in CHO cells; assay: Assay of IICR (IP3 induced calcium release)-inhibiting action; type: cell-based, Chinese hamster; conditions: CHO cells, 10 μM ATP; for inhibition at 10 µM / inhibition at 30 µM / inhibition at 100 µM: Cricetulus griseus, CHO, read-out: IICR level (percentage of inhibition)
Method in brief: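 Inhibition (%) of the intracellular calcium increase triggered by 10 μM ATP, measured in CHO cells in BSS with calcium. Compound given 1 min after the buffer exchange and 2 min before ATP; values reported per compound concentration.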

SMILES | inhibition at 10 µM ([1]; test compound 10 μmol) [%] | inhibition at 30 µM ([1]; test compound 30 μmol) [%] | inhibition at 100 µM ([1]; test compound 100 μmol) [%] | inhibition at 10 µM ([2]; test compound 10 μmol) [%] | inhibition at 30 µM ([2]; test compound 30 μmol) [%] | inhibition at 100 µM ([2]; test compound 100 μmol) [%] | SOCE level (percentage of inhibition) ([1]; test compound 10 μmol) [%] | SOCE level (percentage of inhibition) ([1]; test compound 30 μmol) [%] | SOCE level (percentage of inhibition) ([1]; test compound 100 μmol) [%] | IICR level (percentage of inhibition) ([2]; test compound 10 μmol) [%] | IICR level (percentage of inhibition) ([2]; test compound 30 μmol) [%] | IICR level (percentage of inhibition) ([2]; test compound 100 μmol) [%]
CN(CCO)CCC(=O)c1cccn1C [Example 167, 2-(N-methyl-2-hydroxyethyl)aminoethyl-2-(N-methylpyrrolyl)ketone] | 0 | 0 | 0 | 0 | 0 | 0 |  |  |  |  |  | 
CC(C)N(CC(=O)c1ccccc1)Cc1ccccc1 [Example 168, 2-(N-isopropylbenzyl)aminomethyl-4-phenylketone] | 0 | 0 | 50 | 0 | 0 | 70 |  |  |  |  |  | 
CC(C)N(CCO)CCC(=O)c1cccn1C [Example 169, 2-(N-isopropyl-2-hydroxyethyl)aminoethyl-2-(N-methylpyrrolyl)ketone] | 0 | 0 | 0 | 0 | 0 | 0 |  |  |  |  |  | 
CC(C)N(CCO)CCC(=O)c1ccc[nH]1 [Example 170, 2-(N-isopropyl-2-hydroxyethyl)aminoethyl-2-pyrrolylketone] | 0 | 0 | 0 | 0 | 0 | 0 |  |  |  |  |  | 
C=CC(=O)c1ccco1 [Example 171, 2-furyl vinylketone] | 0 | 10 | 30 | 0 | 0 | 0 |  |  |  |  |  | 
CC(C)N(CCO)CCC(=O)c1ccco1 [Example 172, 2-(N-isopropylhydroxyethyl)aminoethyl-2-furylketone] |  |  |  | 0 |  |  | 0 | 0 | 0 |  |  | 
O=C(CCN(CCO)Cc1ccccc1)c1ccc[nH]1 [Example 173, 2-(N-benzylhydroxyethyl)aminoethyl-2-pyrrolylketone] | 0 | 0 | 0 | 0 | 50 | 80 |  |  |  |  |  | 
O=C(CCN(CCO)CCO)c1ccco1 [Example 174, 2-(N-bis(hydroxyethyl))aminoethyl-2-furylketone] |  |  |  |  |  |  | 0 | 0 | 0 | 0 | 0 | 0
CN(CCC(=O)c1ccc[nH]1)Cc1ccccc1 [Example 175, 2-(N-benzylmethyl)aminoethyl-2-pyrrolylketone] | 0 | 0 | 0 | 10 | 10 | 20 |  |  |  |  |  | 
O=C(CCNCCc1ncc[nH]1)c1cccnc1 [Example 176] | 0 | 0 | 0 | 10 | 30 | 50 |  |  |  |  |  | 
O=C(CCN(CCO)Cc1ccccc1)c1cccnc1 [Example 177, 2-(N-2-hydroxyethylbenzyl)aminoethyl-3-pyridylketone] | 0 | 0 | 0 | 0 | 0 | 50 |  |  |  |  |  | 
CC(C)N(CCO)CCCC(=O)c1ccccc1 [Example 178, 3-(N-isopropylhydroxyethyl)aminopropylphenylketone] | 0 | 0 |  |  |  |  |  |  |  | 0 | 0 | 0
CC(C)N(CCCC(=O)c1ccccc1)Cc1ccccc1 [Example 179, 3-(N-isopropylbenzyl)aminopropylphenylketone] | 0 | 0 | 0 | 0 | 0 | 0 |  |  |  |  |  | 
CCCCN(CCO)CCC(=O)c1cccnc1 [Example 180, 2-(N-2-hydroxyethylbutyl)aminoethyl-3-pyridylketone] | 0 | 0 | 0 | 0 | 0 | 50 |  |  |  |  |  | 
CC(CN(CCO)C(C)C)C(=O)c1ccccc1F (stereo not drawn) [Example 181, 1-methyl-2-(N-hydroxyethylisopropyl)aminoethyl-2-fluorophenylketone] | 20 | 40 | 80 | 0 | 10 | 20 |  |  |  |  |  | 
CC(CN(Cc1ccccc1)C(C)C)C(=O)c1ccccc1F (stereo not drawn) [Example 182, 1-methyl-2-(N-benzylisopropyl)aminoethyl-2-fluorophenylketone] | 10 | 50 | 80 | 0 | 0 | 50 |  |  |  |  |  | 
CC(C)N(CCC(=O)c1cccs1)Cc1ccccc1 [Example 183, 2-(N-isopropylbenzyl)aminoethyl-2-thiophenylketone] | 0 | 0 | 20 | 0 | 0 | 50 |  |  |  |  |  | 
O=C(CCN(CCO)Cc1ccccc1)c1ccsc1 [Example 184, 2-(N-2-hydroxyethylbenzyl)aminoethyl-3-thiophenylketone] | 0 | 0 | 0 | 30 | 50 | 60 |  |  |  |  |  | 
O=C(CCN(c1ccccc1)c1ccccc1)c1ccccn1 [Example 185, 2-(N,N-diphenyl)aminoethyl-2-pyridylketone] | 0 | 10 | 20 | 0 | 10 | 20 |  |  |  |  |  | 
CCc1nccnc1C(=O)CCN(Cc1ccccc1)C(C)C [Example 186, 2-(N-isopropylbenzyl)aminoethyl-2-(3-ethyl)-pyrazylketone] | 0 | 0 | 10 | 70 | 90 | 100 |  |  |  |  |  | 
CCc1nccnc1C(=O)CCN(Cc1ccccc1)C(C)(C)C [Example 188, 2-(N-t-butylbenzyl)aminoethyl-2-(3-ethyl)-pyrazylketone] | 0 | 0 | 20 | 50 | 90 | 100 |  |  |  |  |  | 
O=C(CCNC12CC3CC(CC(C3)C1)C2)c1ccccc1 [Example 189, 2-N-adamantaneaminoethylphenylketone] | 0 | 10 | 10 | 0 | 0 | 0 |  |  |  |  |  | 
Cc1ccc(C(=O)CCNC23CC4CC(CC(C4)C2)C3)o1 [Example 190, 2-N-adamantane-aminoethyl-2-methylfurylketone] | 0 | 10 | 50 | 0 | 10 | 50 |  |  |  |  |  | 
CC(CNC12CC3CC(CC(C3)C1)C2)C(=O)c1ccc(F)cc1 (stereo not drawn) [Example 191] | 0 | 0 | 0 | 0 | 0 | 0 |  |  |  |  |  | 
O=C(CCCCl)c1ccncc1 [Example 192, 3-chloropropyl-4-pyridylketone] | 0 | 10 | 20 | 0 | 0 | 0 |  |  |  |  |  | 
CC(C)(C)N(CCC(=O)c1cccs1)Cc1ccccc1 [Example 193, 2-(N-t-butylbenzyl)aminoethyl-2-thiophenylketone] | 0 | 0 | 0 | 70 | 95 | 100 |  |  |  |  |  | 
CC(C)N(CCO)CCC(=O)c1cccs1 [Example 194, 2-(N-isopropylhydroxyethyl)aminoethyl-2-thiophenylketone] | 0 | 0 | 10 | 0 | 0 | 0 |  |  |  |  |  | 
CC(C)N(CC(=O)c1ccc(F)cc1)Cc1ccccc1 [Example 196, 1-(N-benzylisopropyl)aminomethyl-4-fluorophenylketone] | 0 | 20 | 40 | 0 | 10 | 30 |  |  |  |  |  | 
